From ChEMBL document CHEMBL5233218, “Quinolizidine alkaloids derivatives from Sophora alopecuroides Linn: Bioactivities, structure-activity relationships and preliminary molecular mechanisms” (Eur J Med Chem, 2020)

How the values were obtained:
Type in all cases: functional, cell-based
[1] = system: H22; experiment: Cytotoxicity against mouse H22 cells assessed as inhibition of cell growth by MTT assay
[2] = system: LS180; experiment: Cytotoxicity against human LS180 cells assessed as inhibition of cell growth by MTT assay
[3] = system: HepG2; experiment: Cytotoxicity against human HepG2 cells assessed as inhibition of cell growth by MTT assay
[4] = Antiproliferative activity against rat HSC-T6 cells
[5] = system: MRC5; experiment: Anti-fibrotic activity in human MRC5 cells assessed as inhibition of TGF-beta1 induced total collagen deposition

SMILES | IC50 [1] [nM] | IC50 [2] [nM] | further results
COC(=O)CCC[C@@H]1[C@H]2CCCN3CCC[C@@H](CN1P(=O)(Oc1cccc4ccccc14)N(CCCl)CCCl)[C@@H]23 (some centres undefined) | 2100 | 2100 | 
COC(=O)CCC[C@@H]1[C@H]2CCCN3CCC[C@@H](CN1P(=O)(Oc1ccc(F)cc1)N(CCCl)CCCl)[C@@H]23 (some centres undefined) | 2100 | 2100 | 
O=c1[nH]cc(F)c(=O)[nH]1 [FLUOROURACIL] |  |  | IC50 [3]: 8020 nM
COC(=O)CCC[C@@H]1[C@H]2CCCN3CCC[C@@H](CN1P(=O)(Oc1ccc(Br)cc1)N(CCCl)CCCl)[C@@H]23 (some centres undefined) | 2100 | 2100 | 
COC(=O)CCC[C@@H]1[C@H]2CCCN3CCC[C@@H](CN1P(=O)(Oc1ccc4ccccc4c1)N(CCCl)CCCl)[C@@H]23 (some centres undefined) | 2100 | 2100 | 
COC(=O)CCC[C@@H]1[C@H]2CCCN3CCC[C@@H](CN1P(=O)(Oc1cccc(Cl)c1)N(CCCl)CCCl)[C@@H]23 (some centres undefined) | 2100 | 2100 | 
CN(C(=O)CN/C=C/c1ccccc1)[C@@H]1CC(=S)N2C[C@@H]3CCCN4CCC[C@@H]([C@H]34)[C@H]2C1 |  |  | IC50 [4]: 62000 nM
O=C1CCC[C@@H]2[C@H]3CCCN4CCC[C@@H](CN12)[C@@H]34 [MATRINE] |  |  | IC50 [4]: 128000 nM
O=C1CC(n2ccc3cc(Cl)ccc32)C[C@@H]2[C@H]3CCCN4CCC[C@@H](CN12)[C@@H]34 (some centres undefined) |  |  | IC50 [5]: 3300 nM
